Assay results from US20250129070A1, “BIFUNCTIONAL ANDROGEN RECEPTOR COMPOUNDS” (priority 2023, published 2025).

Assays:
VCaP cells = test: VCaP growth inhibition assay; type: cell-based; conditions: 30 pM R1881, 9 days, CTG
Method in brief: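 VCaP cells in phenol red-free DMEM/5% CSS, pre-incubated 72 h, then stimulated with R1881 (final 30 pM) and treated with 1:5 serial dilutions (final 100 nM to 10 fM) for 9 days at 37 °C. Viability by CellTiter-Glo luminescence; IC50 from 4-parameter logistic fit of RLU vs concentration.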

AR / CBP ternary complex = test: Ternary complex formation assay (sandwich ELISA, AR capture / CBP detection) in VCaP cell lysates; type: cell-based; conditions: 1.5 hours treatment, sandwich ELISA (AR capture, CBP or p300 detection)
Method in brief: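 VCaP cells (50K/well, 5% charcoal-stripped FBS, ≥3 days) treated with bifunctional compound for 1.5 h, then lysed 30 min at 4 °C. AR captured on anti-AR (AR 441) plates; bound CBP or p300 detected by rabbit mAb plus HRP secondary. QuantaRed chemifluorescence read at ex 570/em 585, immediately and at 5 and 15 min.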

| IC50 (VCaP cells) [nM] | EC50 (AR / CBP ternary complex) [nM] | SMILES |
| --- | --- | --- |
| ≤ 0.1 | < 1 | CC(=O)N1CCc2c(c(-c3cccc4cc(-c5cnn(CC6CC7(C6)CN(c6ncc(C(=O)NC8C(C)(C)C(Oc9ccc(C#N)c(Cl)c9)C8(C)C)cn6)C7)c5)ncc34)nn2C2CCOCC2)C1 (stereo not drawn) [Compound 223, 2-[6-[[4-[8-(5-acetyl-1-tetrahydropyran-4-yl-6,7-dihydro-4H-pyrazolo[4,3-c]pyridin-3-yl)-3-isoquinolyl]pyrazol-1-yl]methyl]-2-azaspiro[3.3]heptan-2-yl]-N-[3-(3-chloro-4-cyano-phenoxy)-2,2,4,4-tetramethyl-cyclobutyl]pyrimidine-5-carboxamide] |
| 0.1 to 1 | < 1 | COc1cc(OC2C(C)(C)C(NC(=O)c3ccc(N4CCC(CCc5ccc(-c6cc7c(cc6C(F)F)N(c6nn(C8CCOCC8)c8c6CN(C(C)=O)CC8)CCC7)cn5)CC4)cc3)C2(C)C)ccc1C#N (stereo not drawn) [Compound 247, 4-[4-[2-[5-[1-(5-acetyl-1-tetrahydropyran-4-yl-6,7-dihydro-4H-pyrazolo[4,3-c]pyridin-3-yl)-7-(difluoromethyl)-3,4-dihydro-2H-quinolin-6-yl]-2-pyridyl]ethyl]-1-piperidyl]-N-[3-(4-cyano-3-methoxy-phenoxy)-2,2,4,4-tetramethyl-cyclobutyl]benzamide] |
| ≤ 0.1 | < 1 | CC(=O)N1CCc2c(c(N3CCCc4cc(-c5cnn(C)c5)c(C(F)F)cc43)nn2C2CCC(CN3CCN(c4ncc(C(=O)NC5C(C)(C)C(Oc6ccc(C#N)c(Cl)c6)C5(C)C)cn4)CC3)CC2)C1 (stereo not drawn) [Compound 318, 2-[4-[[4-[5-acetyl-3-[7-(difluoromethyl)-6-(1-methylpyrazol-4-yl)-3,4-dihydro-2H-quinolin-1-yl]-6,7-dihydro-4H-pyrazolo[4,3-c]pyridin-1-yl]cyclohexyl]methyl]piperazin-1-yl]-N-[3-(3-chloro-4-cyano-phenoxy)-2,2,4,4-tetramethyl-cyclobutyl]pyrimidine-5-carboxamide] |
| 1 to 100 | < 1 | COc1cc(OC2C(C)(C)C(NC(=O)c3ccc(N4CC[C@H](N5CCC(n6nc(N7CCCc8cc(-c9cnn(C)c9)c(C(F)F)cc87)c7c6CCN(C(C)=O)C7)CC5)C4)cc3)C2(C)C)ccc1C#N (stereo partly drawn) [Compound 336, 4-[(3S)-3-[4-[5-acetyl-3-[7-(difluoromethyl)-6-(1-methylpyrazol-4-yl)-3,4-dihydro-2H-quinolin-1-yl]-6,7-dihydro-4H-pyrazolo[4,3-c]pyridin-1-yl]-1-piperidyl]pyrrolidin-1-yl]-N-[3-(4-cyano-3-methoxy-phenoxy)-2,2,4,4-tetramethyl-cyclobutyl]benzamide] |
| > 100 | > 100 | C[C@@H]1CC(=O)Nc2cccc(-c3ccc4c(c3)c(-c3cnn(C)c3)nn4CCCN3CCN(c4ncc(C(=O)NC5C(C)(C)C(Oc6ccc(C#N)c(Cl)c6)C5(C)C)cn4)CC3)c2N1 (stereo partly drawn) [Compound 55, N-[3-(3-chloro-4-cyano-phenoxy)-2,2,4,4-tetramethyl-cyclobutyl]-2-[4-[3-[5-[(4R)-4-methyl-2-oxo-1,3,4,5-tetrahydro-1,5-benzodiazepin-6-yl]-3-(1-methylpyrazol-4-yl)indazol-1-yl]propyl]piperazin-1-yl]pyrimidine-5-carboxamide] |
| 0.1 to 1 | < 1 | CC(=O)N1CCc2c(c(N3CCCc4cc(-c5cnn(C)c5)c(C(F)F)cc43)nn2C2CCN(CCOC3CCN(c4ncc(C(=O)NC5C(C)(C)C(Oc6ccc(C#N)c(Cl)c6)C5(C)C)cn4)CC3)CC2)C1 (stereo not drawn) [Compound 170, 2-[4-[2-[4-[5-acetyl-3-[7-(difluoromethyl)-6-(1-methylpyrazol-4-yl)-3,4-dihydro-2H-quinolin-1-yl]-6,7-dihydro-4H-pyrazolo[4,3-c]pyridin-1-yl]-1-piperidyl]ethoxy]-1-piperidyl]-N-[3-(3-chloro-4-cyano-phenoxy)-2,2,4,4-tetramethyl-cyclobutyl]pyrimidine-5-carboxamide] |
| > 100 | 10 to 100 | CN1C(=O)CCc2cc(-c3cccc4cc(-c5ccc(CCC6CCN(c7ncc(C(=O)NC8C(C)(C)C(Oc9ccc(C#N)c(Cl)c9)C8(C)C)cn7)CC6)nc5)ncc34)ccc21 (stereo not drawn) [Compound 238, N-[3-(3-chloro-4-cyano-phenoxy)-2,2,4,4-tetramethyl-cyclobutyl]-2-[4-[2-[5-[8-(1-methyl-2-oxo-3,4-dihydroquinolin-6-yl)-3-isoquinolyl]-2-pyridyl]ethyl]-1-piperidyl]pyrimidine-5-carboxamide] |
| ≤ 0.1 | < 1 | COc1cc(OC2C(C)(C)C(NC(=O)c3ccc(N4CCN(CCc5ccc(-c6cc7cccc(-c8nn(C9CCOCC9)c9c8CN(C(C)=O)CC9)c7cn6)cn5)CC4)cc3)C2(C)C)ccc1C#N (stereo not drawn) [Compound 250, 4-[4-[2-[5-[8-(5-acetyl-1-tetrahydropyran-4-yl-6,7-dihydro-4H-pyrazolo[4,3-c]pyridin-3-yl)-3-isoquinolyl]-2-pyridyl]ethyl]piperazin-1-yl]-N-[3-(4-cyano-3-methoxy-phenoxy)-2,2,4,4-tetramethyl-cyclobutyl]benzamide] |
| 1 to 100 | 1 to 10 | CC(=O)N1CCc2c(c(N3CCCc4cc(C#N)ccc43)nn2C2CC3(C2)CN(CC2CC4(C2)CN(c2ncc(C(=O)NC5C(C)(C)C(Oc6ccc(C#N)c(Cl)c6)C5(C)C)cn2)C4)C3)C1 (stereo not drawn) [Compound 221, 2-[6-[[6-[5-acetyl-3-(6-cyano-3,4-dihydro-2H-quinolin-1-yl)-6,7-dihydro-4H-pyrazolo[4,3-c]pyridin-1-yl]-2-azaspiro[3.3]heptan-2-yl]methyl]-2-azaspiro[3.3]heptan-2-yl]-N-[3-(3-chloro-4-cyano-phenoxy)-2,2,4,4-tetramethyl-cyclobutyl]pyrimidine-5-carboxamide] |
| ≤ 0.1 | < 1 | CC(=O)N1CCc2c(c(N3CCCc4cc(-c5cnn(C)c5)c(C(F)F)cc43)nn2C2CC3(C2)CN(CC2CC4(C2)CN(c2ncc(C(=O)NC5C(C)(C)C(Oc6ccc(C#N)c(Cl)c6)C5(C)C)cn2)C4)C3)C1 (stereo not drawn) [Compound 216, 2-[6-[[6-[5-acetyl-3-[7-(difluoromethyl)-6-(1-methylpyrazol-4-yl)-3,4-dihydro-2H-quinolin-1-yl]-6,7-dihydro-4H-pyrazolo[4,3-c]pyridin-1-yl]-2-azaspiro[3.3]heptan-2-yl]methyl]-2-azaspiro[3.3]heptan-2-yl]-N-[3-(3-chloro-4-cyano-phenoxy)-2,2,4,4-tetramethyl-cyclobutyl]pyrimidine-5-carboxamide] |
| 0.1 to 1 | 10 to 100 | CC(=O)N1CCc2c(c(N3CCCc4cc(-c5cnn(C)c5)c(C(F)F)cc43)nn2C2CN(C3CCN(c4ncc(C(=O)NC5C(C)(C)C(Oc6ccc(C#N)c(Cl)c6)C5(C)C)cn4)CC3)C2)C1 (stereo not drawn) [Compound 11, 2-[4-[3-[5-acetyl-3-[7-(difluoromethyl)-6-(1-methylpyrazol-4-yl)-3,4-dihydro-2H-quinolin-1-yl]-6,7-dihydro-4H-pyrazolo[4,3-c]pyridin-1-yl]azetidin-1-yl]-1-piperidyl]-N-[3-(3-chloro-4-cyano-phenoxy)-2,2,4,4-tetramethyl-cyclobutyl]pyrimidine-5-carboxamide] |
| ≤ 0.1 | < 1 | CC(=O)N1CCc2c(c(N3CCCc4cc(-c5cnn(C)c5)c(C(F)F)cc43)nn2C2CCN(C[C@H]3CCN(c4ncc(C(=O)NC5C(C)(C)C(Oc6ccc(C#N)c(Cl)c6)C5(C)C)cn4)C[C@H]3C)CC2)C1 (stereo partly drawn) [Compound 364] |
| 0.1 to 1 | < 1 | COc1cc(OC2C(C)(C)C(NC(=O)c3ccc(N4CCN(CCc5ccc(-c6cc7c(cn6)N(c6nn(C8CCOCC8)c8c6CN(C(C)=O)CC8)CCC7)cn5)CC4)cc3)C2(C)C)ccc1C#N (stereo not drawn) [Compound 251, 4-[4-[2-[5-[1-(5-acetyl-1-tetrahydropyran-4-yl-6,7-dihydro-4H-pyrazolo[4,3-c]pyridin-3-yl)-3,4-dihydro-2H-1,7-naphthyridin-6-yl]-2-pyridyl]ethyl]piperazin-1-yl]-N-[3-(4-cyano-3-methoxy-phenoxy)-2,2,4,4-tetramethyl-cyclobutyl]benzamide] |

| SMILES | IC50 (VCaP cells) [nM] | EC50 (AR / CBP ternary complex) [nM] |
| --- | --- | --- |
| CC(=O)N1CCc2c(c(N3CCCc4cc(-c5cnn(C)c5)c(C(F)F)cc43)nn2C2CC3(C2)CN(C(=O)C2CC4(C2)CN(c2ncc(C(=O)NC5C(C)(C)C(Oc6ccc(C#N)c(Cl)c6)C5(C)C)cn2)C4)C3)C1 (stereo not drawn) [Compound 217, 2-[6-[6-[5-acetyl-3-[7-(difluoromethyl)-6-(1-methylpyrazol-4-yl)-3,4-dihydro-2H-quinolin-1-yl]-6,7-dihydro-4H-pyrazolo[4,3-c]pyridin-1-yl]-2-azaspiro[3.3]heptane-2-carbonyl]-2-azaspiro[3.3]heptan-2-yl]-N-[3-(3-chloro-4-cyano-phenoxy)-2,2,4,4-tetramethyl-cyclobutyl]pyrimidine-5-carboxamide] | 0.1 to 1 | < 1 |
| CC(=O)N1CCc2c(c(N3CCCc4cnccc43)nn2C2CCN(C(=O)C3CCN(c4ncc(C(=O)NC5C(C)(C)C(Oc6ccc(C#N)c(Cl)c6)C5(C)C)cn4)CC3)CC2)C1 (stereo not drawn) [Compound 128, 2-[4-[4-[5-acetyl-3-(3,4-dihydro-2H-1,6-naphthyridin-1-yl)-6,7-dihydro-4H-pyrazolo[4,3-c]pyridin-1-yl]piperidine-1-carbonyl]-1-piperidyl]-N-[3-(3-chloro-4-cyano-phenoxy)-2,2,4,4-tetramethyl-cyclobutyl]pyrimidine-5-carboxamide] | > 100 | > 100 |
